According to patent US4977155A, “1,2,3-triazolo compounds” (priority 1988, dated 1990):
Values after ≈ are worked out from the molar mass of the structure shown. Where two headings read alike, the source gives them in different places.

How the values were obtained:
[1] = test system: N-methyl-D-aspartate (NMDA) receptors; settings: cited from earlier work
[2] = test system: kainate receptors; settings: in words, background; cited from earlier work
[3] = test system: Quisqualate receptors; settings: in words, background; cited from earlier work
[4] = molecular target: quisqualate type receptors; test: 3H-AMPA binding (Test 1); settings: rat cerebral cortical membrane homogenate; 5 nM 3H-AMPA; 0° C., 30 min, pH 7.1
Excerpt: The quisqualate receptor binding activity of the compounds of the present invention can be illustrated by determining their capability for displacing radioactively labelled 2-amino-3-hydroxy-5-methyl-4-isoxazolepropionic acid (AMPA) from the quisqualate type receptors.
The displacement activity of the compounds may be shown by determining the IC50 value which represents the concentration (μg/ml) which causes a displacement of 50% of the specific binding of ^3 H-AMPA.
^3 H-AMPA binding (Test 1)
500 μl of thawed rat cerebral cortical membrane homogenate in Tris-HCl (30 mM), CaCl2 (2.5 mM) and KSCN (100 mM) pH 7.1 were incubated at 0° C. for 30 min. with 25 μl ^3 H-AMPA (5 nM final concentration) and the test compound and buffer. Non-specific binding was determined by incubation with L-glutamic acid (600 μM final concentration). The binding reaction was terminated by adding 5 ml of ice-cold buffer followed by filtration through Whatman GF/C glass fibre filters and 2×5 ml wash with ice-cold buffer. Bound radioactivity was measured by scintillation counting. IC50 was determined by Hill analysis of at least four concentrations of test compound.

[5] = test system: NMDA stimulated ^3 H-GABA release from cultured mouse cortex neurons; test: Inhibition of NMDA stimulated 3H-GABA release from cultured mouse cerebral cortex interneurons (Test 3); assay type: cell-based; settings: Neuron, 3 μg/ml NMDA, read-out: Test 3 IC50 (inhibits 50% of NMDA induced 3H-GABA release)
Excerpt: The NMDA antagonistic properties of the compounds is illustrated by determining their capability to antagonize NMDA stimulated ^3 H-GABA release from cultured mouse cortex neurons.
The NMDA antagonistic activity of the compounds may be shown by determining the IC50 value, which represents the concentration (μg/ml) which inhibits 50% of NMDA induced ^3 H-GABA release.
Inhibition of NMDA stimulated ^3 H-GABA release from cultured mouse cerebral cortex interneurons (Test 3) Release experiments are performed using the model described by Drejer et al. (Life Sci. 38, 2077 (1986)). To cerebral cortex interneurons cultured in petri dishes (30 mm) are added 100 μg/ml 3-vinyl-GABA one hour before the experiment in order to inhibit degradation of GABA in the neurons. 30 min before the experiment 5 μCi ^3 H-GABA is added to each culture and after this preloading period the cells are washed twice with a HEPES (N-2 Hydroxyethylpiperazine-N'-2-ethanesulfonic acid) buffered saline (HBS) containing 10 mM HEPES, 135 mM NaCl, 5 mM KCl, 0.6 mM MgSO4, 1.0 mM CaCl2 and 6 mM D-glucose; pH 7 and placed in a superfusion system. This system consists of a peristaltic pump continuously delivering thermostated 37° C. superfusion medium from a reservoir to the top of a slightly-tilted petri dish. The cell monolayer at the bottom of the dish is covered with a piece of nylon mesh to facilitate dispersion of medium over the cell layer. The medium is continuously collected from the lower part of the dish and delivered to a fraction collector. Initially, the cells are superfused with HBS for 15 min (flow rate 2 ml/min). Then cells are stimulated for 30 sec every 4 min by changing the superfusion medium from HBS to a corresponding medium containing NMDA and antagonists according to the following scheme: […]
stimulation no. 1: 3 μg/ml NMDA stimulation no. 2: 3 μg/ml NMDA+0.3 μg/ml antagonist stimulation no. 3: 3 μg/ml NMDA+3 μg/ml antagonist
Test substances are dissolved in water or 48% ethanol. The final ethanol concentration in the assay must not exceed 0.1%.
The release of ^3 H-GABA in the presence of NMDA (stimulated relase in cpm) are corrected for the mean basal release (cpm) before and after the stimulation.
The stimulated release in the presence of antagonists are expressed relative to the stimulated release by NMDA alone and the IC50 value for the antagonist is calculated (the concentration (μg/ml) of the test substance which inhibits 50% of the NMDA induced ^3 H-GABA release) either from a dose response curve or from the formula: [formula] where Co is stimulated release in control assays and Cx is the stimulated release in the test assay (the calculation assumes normal mass-action interaction). 25-75% inhibition of the NMDA stimulation must be obtained, before calculation of IC50.

[6] = test system: quisqualic acid stimulated Na^+ -efflux from rat striatal slices; test: Antagonism of quisqualic acid induced 22Na+ release (Test 2); assay type: cell-based; settings: rat striatum slices; quisqualic acid 2 μg/ml; read-out: Test 2 EC50 (reduces rate of quisqualic acid stimulated sodium efflux by 50%)
Description: The quisqualate antagonism is measured by determining the EC50 value which represents the concentration which reduces the rate of quisqualic acid stimulated sodium efflux by 50%.
Antagonism of quisqualic acid induced ^22 Na^+ -release (Test 2)
Slices from rat striatum were preincubated with ^22 Na^+ for 30 min. After the ^22 Na^+ loading period, the slices were successively and every minute transferred through a series of tubes, each containing 1.5 ml of a non-radioactive physiological solution saturated with O2, with the help of a basket shaped sieve. Quisqualic acid (2 μg/ml) was present in the last 5 tubes and the compound to be tested was present in the same 5 tubes plus 3 tubes before. The amount of radioactivity in each washout tube as well as that left in the slices at the end of the experiment was measured by scintillation counting. EC50 were calculated by Hill analysis from at least three different concentrations of test compound as the concentration of test compound which reduces the efflux rate of ^22 Na^+ -ions to 50% of the efflux rate in the absence of test compound.

Test 1 IC50 (displacement of 50% of the specific binding of 3H-AMPA) [4]	IC50 [5] [µg/mL]	SMILES	also measured
–	–	O=C(O)[C@@H]1CCCN[C@H]1C(=O)O (relative stereo) [trans-2,3-PDA, trans-2,3-piperidine dicarboxylic acid]	agonist activity on NMDA receptors ([1]; in words, background): strong to moderate agonist activity
–	–	N[C@@H](CCC(=O)NCC(=O)O)C(=O)O [3-glutamyl-glycine]	selectivity for kainate receptors [2]: some selectivity for kainate receptors
–	–	Cc1onc(O)c1CC(N)C(=O)O (stereo not drawn) [AMPA, 2-amino-3-hydroxy-5-methyl-4-isoxazolepropionic acid]	agonist activity on quisqualate receptors [3]: potent agonists
–	–	N[C@H](CCCC(=O)O)C(=O)O [D-2-amino-adipic acid]	antagonist activity on NMDA receptors ([1]; in words, background): moderate antagonist activity
–	–	N[C@H](CCCCCP(=O)(O)O)C(=O)O [D-APH, 2-amino-7-phosphonoheptanoic acid]	antagonist activity on NMDA receptors ([1]; in words, background): most potent and selective antagonists
–	–	N[C@H](CCCP(=O)(O)O)C(=O)O [D-APV, 2-amino-5-phosphono-valeric acid]	antagonist activity on NMDA receptors ([1]; in words, background): most potent and selective antagonists
–	–	N[C@H](CCC(=O)O)C(=O)O [D-glutamic acid]	agonist activity on NMDA receptors [1]: strong to moderate agonist activity
13,3 μg/ml	–	Oc1nc2ccc3nn[nH]c3c2nc1O [Ex 1, 7,8 Dihydroxy-1H-1,2,3-triazolo[4,5-f]quinoxaline]	–
0,85 μg/ml	0.26 (≈ 1.05 µM)	O=[N+]([O-])c1cc2nc(O)c(O)nc2c2[nH]nnc12 [Ex 2, 7,8-Dihydroxy-4-nitro-1H-1,2,3-triazolo[4,5-f]quinoxaline]	EC50 [6]: 10 µg/mL (≈ 40.3 µM)
10 µg/mL	–	N#Cc1cc2nc(O)c(O)nc2c2[nH]nnc12 [Ex 4, 4-Cyano-7,8-dihydroxy-1H-1,2,3-triazolo[4,5-f]quinoxaline]	–
0,31 μg/ml	0.096 (≈ 0.366 µM)	Cn1nnc2c([N+](=O)[O-])cc3nc(O)c(O)nc3c21 [Ex 6, 7,8-Dihydroxy-1-methyl-4-nitro-1H-1,2,3-triazolo[4,5-f]quinoxaline]	EC50 [6]: 4.1 µg/mL (≈ 15.6 µM)
0,41 μg/ml	0.14 (≈ 0.566 µM)	O=[N+]([O-])c1cc2nc(O)c(O)nc2c2[nH]ncc12 [Ex 9, 7,8-Dihydroxy-4-nitro-1H-pyrazolo[3,4-f]quinoxaline]	–
0,36 μg/ml	0.14 (≈ 0.534 µM)	Cn1nc2c([N+](=O)[O-])cc3nc(O)c(O)nc3c2n1 [Ex 11, 7,8-Dihydroxy-2-methyl-4-nitro-2H-1,2,3-triazolo[4,5-f]quinoxaline]	–
0,07 μg/ml	0.11 (≈ 0.42 µM)	Cn1nnc2c3nc(O)c(O)nc3cc([N+](=O)[O-])c21 [Ex 13, 7,8-Dihydroxy-3-methyl-4-nitro-3H-1,2,3-triazolo[4,5-f]quinoxaline]	–
0,19 μg/ml	0.73 (≈ 3.01 µM)	Cn1nnc2c3nc(O)c(O)nc3cc(C#N)c21 [Ex 15, 4-Cyano-7,8-dihydroxy-3-methyl-3H-1,2,3-triazolo[4,5-f]quinoxaline]	–
0,21 μg/ml	–	O=[N+]([O-])c1cc2nc(O)c(O)nc2c2scnc12 [Ex 17, 7,8-Dihydroxy-4-nitrothiazolo[5,4-f]quinoxaline]	–
0,23 μg/ml	0.13 (≈ 0.522 µM)	O=[N+]([O-])c1cc2nc(O)c(O)nc2c2nonc12 [Ex 24, 7,8-Dihydroxy-4-nitro-l,2,5-oxadiazolo(3,4-f)quinoxaline]	–
0,39 μg/ml	0.1 (≈ 0.386 µM)	O=[N+]([O-])c1cc2nc(O)c(O)nc2c2nccnc12 [Ex 35, 2,3-Dihydroxy-6-nitropyrazino(2,3-f)quinoxaline]	–
0,39 μg/ml	0.14 (≈ 0.487 µM)	Cc1nc2c([N+](=O)[O-])cc3nc(O)c(O)nc3c2nc1C [Ex 36, 2,3-Dihydroxy-8,9-dimethyl-6-nitropyrazino(2,3-f)quinoxaline]	–
0,13 μg/ml	0.09 (≈ 0.339 µM)	O=[N+]([O-])c1cc2nc(O)c(O)nc2c2nsnc12 [Ex 38, 7,8-Dihydroxy-4-nitro-1,2,5-thiadiazolo(3,4-f)quinoxaline]	–
1,9 μg/ml	–	Oc1nc2ccc3sccc3c2nc1O [Ex 39, 2,3-Dihydroxythieno[3,2-f]quinoxaline]	–
–	–	CCOC(=O)CC[C@H](N)C(=O)OCC [GDEE, Glutamic acid diethyl ester]	antagonist activity on quisqualate receptors [3]: selective but very weak antagonist
–	–	N[C@H](C(=O)O)c1cc(=O)[nH]o1 [Ibotenic acid]	agonist activity on NMDA receptors ([1]; in words, background): strong to moderate agonist activity
–	–	N[C@@H](CCC(=O)O)C(=O)O [L-glutamic acid]	agonist activity on quisqualate receptors [3]: potent agonists
–	–	N[C@@H](CCS(=O)(=O)O)C(=O)O [L-homocysteic acid]	agonist activity on NMDA receptors ([1]; in words, background): strong to moderate agonist activity
–	–	N[C@H](CCC[C@H](N)C(=O)O)C(=O)O [diaminopimelic acid]	antagonist activity on NMDA receptors ([1]; in words, background): moderate antagonist activity
–	–	N[C@@H](Cn1oc(=O)[nH]c1=O)C(=O)O [quisqualic acid]	agonist activity on quisqualate receptors [3]: activated selectively
